Results taken from publication PMC9015527 (Chemistry (Weinheim an Der Bergstrasse, Germany), 2021).

Columns and labels:
[1] = in vitro; settings: simian (monkey)
[2] = test system: SARS-CoV-2 isolate MUC-IMB-1/2020; format: cell-based
[3] = test system: SARS-CoV-2 isolate MUC-IMB-1/2020; assay: microbe, parasite or virus in culture; format: cell-based
[4] = in vitro; settings: human, Caco-2
[5] = test system: SARS-CoV-2 d6-YFP

## CCN(CC)CCCC(C)Nc1ccnc2cc(Cl)ccc12 (stereo not shown) [CQ, chloroquine]
[1]; CC50 (Vero 76, mAb-S)
  CC50: > 100 µM
[1]; CC50 (Vero 76, mAb-dsRNA)
  CC50: > 30 µM
[2]
  SI (Vero 76, mAb-S): >32.3
[3]
  SI (Vero 76, mAb-dsRNA): >14
[3]; Severe acute respiratory syndrome coronavirus 2, Vero 76, read-out: EC50 (Vero 76, mAb-dsRNA)
  EC50: 2.2 ± 0.9 µM
[4]
  CC50: 41.7 ± 2.5 µM
[5]
  SI (Caco-2): 3.2
